For 20 compounds, EC50 results are on record in patent US11912686B2 (Gilead Sciences, Inc., priority 2020, dated 2024).

What is called EC50 is the concentration that produces a half-maximal response.

human LPAR1, sequence (Q92633 whole entry): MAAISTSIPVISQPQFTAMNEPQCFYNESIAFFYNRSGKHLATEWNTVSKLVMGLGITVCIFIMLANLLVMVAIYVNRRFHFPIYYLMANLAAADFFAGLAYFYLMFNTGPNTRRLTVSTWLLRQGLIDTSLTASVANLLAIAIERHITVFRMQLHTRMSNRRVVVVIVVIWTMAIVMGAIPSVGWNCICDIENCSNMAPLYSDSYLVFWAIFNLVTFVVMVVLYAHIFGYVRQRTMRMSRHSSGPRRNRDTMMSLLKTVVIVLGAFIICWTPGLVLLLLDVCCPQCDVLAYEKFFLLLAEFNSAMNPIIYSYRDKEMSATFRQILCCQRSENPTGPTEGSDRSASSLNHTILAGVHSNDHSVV

This experiment addresses human LPAR1 (Homo sapiens (Human), UniProt Q92633). Kind of experiment: LPAR1 intracellular calcium mobilization assay (antagonist mode, FLIPR). It is filed as cell-based. As to conditions: CHO-K1 EDG2 cells expressing human LPAR1, LPA 18:2 at EC80 (100 nM), test compound 0.5 nM to 10 μM. (In general: Calcium assays in cells follow changes in intracellular calcium, usually with a dye or a luminescent sensor.)
`CCCC(=O)Nc1ccc(-c2nnn(C)c2NC(=O)O[C@H](C)c2cccnc2Cl)nc1` [Compound 30, (R)-1-(2-chloropyridin-3-yl)ethyl (4-(5-butyramidopyridin-2-yl)-1-methyl-1H-1,2,3-triazol-5-yl)carbamate]: the EC50 is 516 nM. Turning to `C[C@@H](OC(=O)Nc1c(-c2ccc(NC(=O)c3ccnc(F)c3F)cn2)nnn1C)c1cc(F)cnc1F` [Compound 243, (R)-1-(2,5-difluoropyridin-3-yl)ethyl (4-(5-(2,3-difluoroisonicotinamido)pyridin-2-yl)-1-methyl-1H-1,2,3-triazol-5-yl)carbamate], the concentration for a half-maximal effect (EC50) was found to be 71.9 nM. For `CNC(=O)Nc1ccc(-c2nnn(C)c2NC(=O)O[C@H](C)c2ccccc2Cl)cn1` [Compound 3], the EC50 was 10000 nM.

As for `C[C@@H](OC(=O)Nc1c(-c2ccc(NC(=O)C34CC(C(F)(F)F)(C3)C4)cn2)nnn1C)c1cccnc1F` [Compound 170, (R)-1-(2-fluoropyridin-3-yl)ethyl (1-methyl-4-(5-(3-(trifluoromethyl)bicyclo[1.1.1]pentane-1-carboxamido)pyridin-2-yl)-1H-1,2,3-triazol-5-yl)carbamate], the half-maximal effective concentration (EC50) came out at 31.8 nM. In the case of `C[C@@H](OC(=O)Nc1c(-c2ccc(NC(=O)C34CC(C)(C3)C4)cn2)nnn1C)c1cccnc1Cl` [Compound 47, (R)-1-(2-chloropyridin-3-yl)ethyl (1-methyl-4-(5-(3-methylbicyclo[1.1.1]pentane-1-carboxamido)pyridin-2-yl)-1H-1,2,3-triazol-5-yl)carbamate], the concentration giving a half-maximal response (EC50) was determined as 19.1 nM.

Consider `C[C@@H](OC(=O)Nc1c(-c2ccc(NC(=O)C(C)(C)C#N)cn2)nnn1C)c1cccnc1Cl` [Compound 129, (R)-1-(2-chloropyridin-3-yl)ethyl (4-(5-(2-cyano-2-methylpropanamido)pyridin-2-yl)-1-methyl-1H-1,2,3-triazol-5-yl)carbamate], for which the 50% effective concentration (EC50) was determined as 492 nM. For `CC(OC(=O)Nc1c(-c2ccc(NC(=O)C(F)(F)F)cn2)nnn1C)c1cc(Br)cnc1F` (centres unmarked) [Compound 12, 1-(5-bromo-2-fluoropyridin-3-yl)ethyl (1-methyl-4-(5-(2,2,2-trifluoroacetamido)pyridin-2-yl)-1H-1,2,3-triazol-5-yl)carbamate], the 50% effective concentration (EC50) is 541 nM. On to `C[C@@H](OC(=O)Nc1c(-c2ccc(NC(=O)[C@H]3C[C@@H](F)C3)cn2)nnn1C)c1cccnc1Cl` [Compound 71, (R)-1-(2-chloropyridin-3-yl)ethyl (4-(5-((1s,3S)-3-fluorocyclobutane-1-carboxamido)pyridin-2-yl)-1-methyl-1H-1,2,3-triazol-5-yl)carbamate], for which the EC50 was 89.7 nM. With `C[C@@H](OC(=O)Nc1c(-c2ccc(NC(=O)c3cnc(C(F)(F)F)nc3)cn2)nnn1C)c1cccnc1Cl` [Compound 205, (R)-1-(2-chloropyridin-3-yl)ethyl (1-methyl-4-(5-(2-(trifluoromethyl)pyrimidine-5-carboxamido)pyridin-2-yl)-1H-1,2,3-triazol-5-yl)carbamate] the figure was 8.3 nM; with `C[C@@H](OC(=O)Nc1c(-c2ccc(NC(=O)[C@]3(F)C[C@H](O)C3)cn2)nnn1C)c1cccnc1Cl` [Compound 133, (R)-1-(2-chloropyridin-3-yl)ethyl (4-(5-((1r,3R)-1-fluoro-3-hydroxycyclobutane-1-carboxamido)pyridin-2-yl)-1-methyl-1H-1,2,3-triazol-5-yl)carbamate], 344 nM. As to `C[C@@H](OC(=O)Nc1c(-c2ccc(NC(=O)c3ccc(Cl)nc3)cn2)nnn1C)c1cc(F)cnc1F` [Compound 212, (R)-1-(2,5-difluoropyridin-3-yl)ethyl (4-(5-(6-chloronicotinamido)pyridin-2-yl)-1-methyl-1H-1,2,3-triazol-5-yl)carbamate], the EC50 is 56.4 nM.

`C[C@@H](OC(=O)Nc1c(-c2ccc(NC(=O)C3(C(F)F)CNC3)cn2)nnn1C)c1cc(F)cnc1F` [Compound 298, (R)-1-(2,5-difluoropyridin-3-yl)ethyl (4-(5-(3-(difluoromethyl)azetidine-3-carboxamido)pyridin-2-yl)-1-methyl-1H-1,2,3-triazol-5-yl)carbamate]: the EC50 was found to be 1250 nM. For the compound `C[C@@H](OC(=O)Nc1c(-c2ccc(NC(=O)C3(C(F)(F)F)CC(=O)C3)cn2)nnn1C)c1cccnc1Cl` [Compound 120, (R)-1-(2-chloropyridin-3-yl)ethyl (1-methyl-4-(5-(3-oxo-1-(trifluoromethyl)cyclobutane-1-carboxamido)pyridin-2-yl)-1H-1,2,3-triazol-5-yl)carbamate], the half-maximal effective concentration (EC50) was 2470 nM. With `C[C@@H](OC(=O)Nc1c(-c2ccc(NC(=O)C3(C#N)CNC3)cn2)nnn1C)c1cc(F)cnc1F` [Compound 297, (R)-1-(2,5-difluoropyridin-3-yl)ethyl (4-(5-(3-cyanoazetidine-3-carboxamido)pyridin-2-yl)-1-methyl-1H-1,2,3-triazol-5-yl)carbamate], the EC50 amounted to 354 nM.

Take `C[C@@H](OC(=O)Nc1c(-c2ccc(NC(=O)CC(C)(C)O)cn2)nnn1C)c1cccnc1Cl` [Compound 118, (R)-1-(2-chloropyridin-3-yl)ethyl (4-(5-(3-hydroxy-3-methylbutanamido)pyridin-2-yl)-1-methyl-1H-1,2,3-triazol-5-yl)carbamate]: the EC50 stood at 1340 nM. In the case of `C[C@@H](OC(=O)Nc1c(-c2ccc(NC(=O)C3(C#N)C(C#N)C3(C)C)cn2)nnn1C)c1cccnc1Cl` (stereo partly drawn) [Compound 145, (R)-1-(2-chloropyridin-3-yl)ethyl (4-(5-(1,3-dicyano-2,2-dimethylcyclopropane-1-carboxamido)pyridin-2-yl)-1-methyl-1H-1,2,3-triazol-5-yl)carbamate], the 50% effective concentration (EC50) came out at 184 nM. Turning to `C[C@@H](OC(=O)Nc1c(-c2ccc(NC(=O)CC(F)F)cn2)nnn1C)c1cccnc1Cl` [Compound 107, (R)-1-(2-chloropyridin-3-yl)ethyl (4-(5-(3,3-difluoropropanamido)pyridin-2-yl)-1-methyl-1H-1,2,3-triazol-5-yl)carbamate], the concentration for a half-maximal effect (EC50) was found to be 10000 nM. For the compound `C[C@@H](OC(=O)Nc1c(-c2ccc(NC(=O)[C@H]3C[C@@H]3c3ccccn3)cn2)nnn1C)c1cc(F)cnc1F` [Compound 266, (R)-1-(2,5-difluoropyridin-3-yl)ethyl (1-methyl-4-(5-((1S,2S)-2-(pyridin-2-yl)cyclopropane-1-carboxamido)pyridin-2-yl)-1H-1,2,3-triazol-5-yl)carbamate], the concentration giving a half-maximal response (EC50) was found to be 749 nM. `C[C@@H](OC(=O)Nc1c(-c2ccc(NC(=O)C3(CO)CC(F)(F)C3)cn2)nnn1C)c1cccnc1Cl` [Compound 200, (R)-1-(2-chloropyridin-3-yl)ethyl (4-(5-(3,3-difluoro-1-(hydroxymethyl)cyclobutane-1-carboxamido)pyridin-2-yl)-1-methyl-1H-1,2,3-triazol-5-yl)carbamate]: the EC50 was 94 nM. For the compound `C[C@@H](OC(=O)Nc1c(-c2ccc(NC(=O)C3CN(CC(F)(F)F)C3)cn2)nnn1C)c1cccnc1Cl` [Compound 309, (R)-1-(2-chloropyridin-3-yl)ethyl (1-methyl-4-(5-(1-(2,2,2-trifluoroethyl)azetidine-3-carboxamido)pyridin-2-yl)-1H-1,2,3-triazol-5-yl)carbamate], the EC50 amounted to 133 nM.
